Active and inactive are the calls of the source.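 How the source made its calls: active means compounds giving half or more protection of infected cells from virus-caused growth loss, again on retest; inactive means the rest.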 Where a SMILES comes first, the peptide text is derived from it. [ ]: non-standard residue; d: D form. The star is where a group is joined. Phe(4-NO2) = N[CH](Cc1ccc([N+](=O)[O-])cc1)C(=O)O; Boc = CC(C)(C)OC(=O)*; OtBu = CC(C)(C)O*
System: CEM cells HIV-1 protection, formazan growth assay
Assay: NCI AIDS Antiviral Assay
Settings: for IC50: measured here: growth of uninfected CEM cells
In short: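 Human CEM cells, uninfected and HIV-1-infected, received five drug concentrations, and growth was read by soluble formazan assay. Compounds giving at least 50% protection were retested; reproducible 100% protection defined confirmed active.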

SMILES | EC50 [µM] | IC50 [µM] | outcome
NC(N)=NS(=O)(=O)c1ccc(NNc2c3ccccc3nc3c(C(=O)Nc4ccc(S(=O)(=O)N=C(N)N)cc4)cccc23)cc1 | > 200 | 33.1 | 
CN(C)CCNC(=O)C1COc2cc(-c3cc(=O)c4ccccc4o3)ccc2O1 (stereo not given) |  |  | inactive
O=C1CCCC2=C1CC1=C(CCCC1=O)N2c1ccccc1C(=O)O | > 200 | > 200 | 
O=C(O)CN1CCN(CC(=O)N2CCN(C(=O)OCc3ccccc3)CC2)CCN(CC(=O)O)CCN(CC(=O)N2CCN(C(=O)OCc3ccccc3)CC2)CC1 | > 200 | > 200 | 
O=C(C#CP(=O)(O)c1ccccc1)c1ccccc1 | > 200 | > 200 | 
O=P(O)(O)CN1CCN(CP(=O)(O)O)CCN(CP(=O)(O)O)CCN(CP(=O)(O)O)CC1 | > 100 | 20.4 | 
Oc1cc(O)c2c(c1)O[C@@H](c1ccc(O)c(O)c1)[C@H](O)C2 | > 200 | > 200 | 
COc1cccc(CN2CCCN(/N=C/c3c4c(O)c5c(O)c(C)c6c(c5c3O)C(=O)C(C)(O/C=C/C(OC)C(C)C(OC(C)=O)C(C)C(O)C(C)C(O)C(C)/C=C/C=C(/C)C(=O)N4)O6)CC2)c1 (stereo not given) | > 200 | 5.01 | 
S=C1NCCN1C(=S)Nc1ccccc1 | > 141 | > 141 | 
C(=C/c1nnnn1-c1ccccc1)/Nc1ccccc1 | > 200 | 26.3 | 
CC(C)=CCC/C(C)=C/CC/C(C)=C/Cc1c(O)c2ccccc2oc1=O | > 186 | 95.5 | 
CC(=O)Nc1ccc(S(=O)(=O)N/N=C/CN2C(=O)c3ccccc3C2=O)cc1 | 26.9 | 89.1 | 
c1ccc(CN2CCC(Nc3ccccc3)(c3nnnn3Cc3ccccc3)CC2)cc1 | > 200 | 33.1 | 
O=C1CCC2(c3ccccc3)Nc3ccccc3N12 (stereo not given) | > 200 | 126 | 
CC(=O)OCCCOCn1cc(C)c(=O)[nH]c1=O | > 200 | > 200 | 
S=C1c2ccccc2NC(=NC2CCCC2)C2CSCN12 (stereo not given) | > 200 | 148 | 
COC1/C=C\OC2(C)Oc3c(C)c(O)c4c(O)c(c(/C=N\OC(C(=O)O)C(C)C)c(O)c4c3C2=O)NC(=O)/C(C)=C\C=C/C(C)C(O)C(C)C(O)C(C)C(OC(C)=O)C1C (stereo not given) | > 100 | 40.7 | 
COC(=O)C1CC2(CCC1=O)Cc1ccccc1C2=O (stereo not given) | > 200 | 72.4 | 
COC(=O)C(Cc1ccc([N+](=O)[O-])cc1)NC(=O)C(CC(=O)OC(C)(C)C)NC(=O)OC(C)(C)C (stereo not given) (Boc-Asp(OtBu)-[Phe(4-NO2)]-OMe; configuration not given here) | > 200 | 93.3 | 
Cc1nc2cc(C)[nH]c(=O)n2n1 | > 1510 | > 1510 | 
O=C(O)c1c2c(nc3ccccc13)CCC2 | > 447 | > 447 | 

SMILES | EC50 [µM] | IC50 [µM] | outcome
COc1oc(C2C/C(=C/C(C)=C/C(C)=C/C(C)=C/c3ccc([N+](=O)[O-])cc3)CO2)c(C)c(=O)c1C (stereo not given) | > 38.9 | 10 | 
CCOC(=O)c1nc2cc(F)c(N3CCOCC3)cc2[nH]c1=O | > 200 | 95.5 | 
Cc1ccc(C)c(NC(=O)CCC(=O)CC(=O)C(C)(C)C)c1 |  |  | inactive
COc1cccc(/C=C2\SC(=S)N(/C=C(/C#N)C(N)=O)C2=O)c1O | 100 | 112 | 
O=C(O)CC(NC(=O)OCc1ccccc1)C(=O)O (stereo not given) | > 200 | > 200 | 
CCN(CC)c1ccc(N=Nc2ccc(-c3nc4cccnc4s3)cc2)cc1 | > 5.13 | > 5.13 | 
CC(NC(=O)C(CCCCN)NC(=O)C(N)CC(=O)O)C(=O)NC(CO)C(=O)NC(Cc1ccc(O)cc1)C(=O)NC(CO)C(=O)NC(C(=O)NC(CC(N)=O)C(=O)NC(Cc1cnc[nH]1)C(=O)O)C(C)O (stereo not given) (H-DKASYSTNH-OH; configuration not given here) | > 49 | > 49 | 
Clc1cc2cc3c(Br)coc3nc2cc1Cl | > 16.2 | > 16.2 | 
O=c1c(-c2ccc3c(c2)OCO3)coc2cc(O)ccc12 | > 200 | > 200 | 
CC(=S)NNC(=O)c1ccncc1 | > 1290 | 135 | 
CCCCOC(=O)OC1CCC2(C)CC3C=CC2(OO3)C1(C)C (stereo not given) | > 20 | 4.27 | 
CCN(CC)CCN1C(=O)C(=O)N(c2cccc3ccccc23)C1=O | > 200 | > 200 | 
CCCCCCC1C=CCCN1 (stereo not given) |  |  | inactive
CCCCC(C)CCCC1=C(O)C(CC(=O)O)OC1=O (stereo not given) | > 87.1 | > 87.1 | 
O=C(O)Cn1ncn(NC(=O)Cc2ccccc2)c1=S | > 200 | > 200 | 
N#Cc1cccc(/C=N/N=C(\N)NO)c1 | > 479 | 37.2 | 
CC(=O)OC1=NN=C2COC(c3ccccc3OC(C)=O)=NN2C1 | > 200 | 115 | 
c1ccc(N2CCN(c3ccccc3)C2)cc1 | > 200 | > 200 | 
CC(=O)OC1CCC2(C)C(=CCC3C2CCC2(C)C3CC3N(c4ccccc4Cl)C32C#N)C1 (stereo not given) | > 21.4 | > 21.4 | 
COC1CC(OC2C(C)OC(OC3C(C)OC(OC4C(C)OC(O[C@H]5CC[C@@]6(C)C(=CC[C@]7(O)[C@@H]6C[C@@H](OC(=O)/C=C(\C)C(C)C)[C@@]6(C)[C@]7(O)CC[C@@]6(O)C(C)=O)C5)CC4OC)CC3OC)CC2OC)OC(C)C1O (stereo not given in full) | > 200 | 27.5 | 
CC(C)(C)c1cc(N=O)cc(C(C)(C)C)c1O | > 200 | 18.6 | 

SMILES | EC50 [µM] | IC50 [µM] | outcome
Cc1cc2c(cc1Cl)Sc1nccn1S2(=O)=O | 40.7 | 79.4 | 
Clc1ccc(/C=N\N2CCCCCC2)c(Cl)c1 |  |  | inactive
COc1ccc(N2C(=O)/C(=C/c3ccc(N(CCC#N)CCC#N)cc3C)N=C2/C=C\c2ccccc2)cc1 | > 14.1 | > 14.1 | 
Cc1ccc(Oc2ccc(C)cc2N)cc1 |  |  | inactive
Clc1ccc(Cl)c(-c2csc(-c3cccnc3)n2)c1 | > 200 | 36.3 | 
O=[N+]([O-])c1ccc2[nH]nc(OCc3ccccn3)c2c1 | 115 | > 200 | 
CC(=O)NC(Cc1ccccc1)NC(=O)O (stereo not given) | > 200 | > 200 | 
COC(=O)c1ccc(NCC2=CC(=O)C=CC2=O)cc1O | > 200 | 4.47 | 
N#Cc1ccc(/C=C/C(=O)c2ccccc2)cc1 | > 30.9 | 14.5 | 
O=C1C2C3CC4C5C3C1C5C1(SCCS1)C42 (stereo not given) |  |  | inactive
FC1C2=C(SC1(F)F)C1CCC2C1 (stereo not given) | > 200 | > 200 | 
COc1ccc(C2C3COc4ccccc4C3=NN2c2ccccc2)cc1 (stereo not given) | > 200 | > 200 | 
CCOc1cc2c(cc1O)C=C[C@@H]1[C@@H]2CC[C@]2(C)[C@@H](O)CC[C@@H]12 | > 2 | 0.589 | 
COc1cc2c3c(c1)ncn3C(=O)CCS2 | > 200 | > 200 | 
[N-]=[N+]=CC(=O)OC(CCl)CCl | > 200 | > 200 | 
Brc1ccc(/C(N=N/C(=N\Sc2ccccc2)c2ccc(Br)cc2)=N/Sc2ccccc2)cc1 | > 50.1 | > 50.1 | 
Cc1c(O)ccc2c(O)c(NC(=O)c3ccc4c(c3)CCC(C)(C)O4)c(=O)oc12 | > 200 | 83.2 | 
COc1ccc(/C=C(\Cl)c2ccc(OC)c(OC)c2)cc1OC | 56.2 | > 200 | 
CN(C)c1ccc(/C=C(\C#N)c2ccc([N+](=O)[O-])cc2)c(Cl)c1 | > 100 | 75.9 | 
Cc1cc(Sc2cc(C)c(O)c(C(C)(C)C)c2)cc(C(C)(C)C)c1O | > 200 | 15.8 | 
COc1ccc(/C=C/C(=N/NC(=O)N/N=C(/C=C/c2ccc(OC)cc2)C(C)(C)CN2CCCCC2)C(C)(C)CN2CCCCC2)cc1 | > 200 | 2.09 | 

SMILES | EC50 [µM] | IC50 [µM] | outcome
CCC(C(=O)OC)C1CCN(C)C(=O)C12CO2 (stereo not given) | > 1020 | > 1020 | 
Cc1cc(C)c(S(=O)(=O)Sc2nnnn2-c2ccccc2)c(C)c1 | > 20 | > 20 | 
CN1CCCC1=NC#N | > 200 | > 200 | 
C=C1C(=O)O[C@H]2[C@H](OC(C)=O)[C@@H](C)CCC/C(C)=C/CC[C@@]3(C)O[C@@H]3C[C@@H]12 | > 126 | 5.62 | 
N#CC1(C#N)C2CCCCC23OC(=N)C1(C#N)C(c1ccccc1)O3 (stereo not given) | > 200 | 5.62 | 
Brc1ccc2[nH]cc(/C=N/N3CCCCCC3)c2c1 | > 112 | > 112 | 
CC(=O)NNc1nc(C)c(C(=O)NNC(=O)C(=O)Nc2cccc(C(C)=O)c2)s1 | > 44.7 | > 44.7 | 
COc1cccc(Nc2nc(N)nc(N)c2N)c1 | > 200 | 26.3 | 
COc1cccc(C=O)c1[O-].COc1cccc(C=O)c1[O-].[Zn+2] | > 676 | 21.9 | 
COc1cc2c(cc1OC)C(C1c3cc(OC)c(OC)cc3-c3c(OC)c(OC)cc4c3C1N(C)CC4)C1c3c(cc(OC)c(OC)c3-2)CCN1C (stereo not given) |  |  | inactive
COc1cc(CNc2nc3cc(C(F)(F)F)ccc3nc2C(=O)O)cc(OC)c1OC | > 200 | 97.7 | 
O=C1NC(=Nc2ccccc2)C(=Nc2ccccc2)N1c1ccccc1 | > 200 | 14.8 | 
COc1ccc(S(=O)(=O)N/N=C/CN2C(=O)c3ccccc3C2=O)cc1OC | > 64.6 | > 64.6 | 
Cc1cccc(N(C=O)c2c(O)nc(N)[nH]c2=O)c1 | > 200 | > 200 | 
CCCc1cc(=O)oc2c3c(cc(OC(C)C)c12)O[C@H](C)[C@@H](C)/C3=N/O | > 200 | 3.8 | 
Cc1cc(=O)oc2cc(O/C(=C\c3ccc(O)cc3)c3nc4ccccc4c(=O)o3)ccc12 | > 22.9 | > 22.9 | 
CCO[C@@H]1N(C2CC(N=[N+]=[N-])C(CO)O2)C(=O)NC(=O)[C@]1(C)Cl (stereo not given in full) | > 200 | > 200 | 
CC1=C2C(O)C(C(C)CO)C(O)CC2(C)C(O)CC1 (stereo not given) |  |  | inactive
O=c1ccn2c(n1)OC1C(O)C(CO)OC12 (stereo not given) | > 200 | > 200 | 
Cc1n[nH]c(=O)n1Nc1ccccc1 | > 200 | > 200 | 
Cn1cnc([N+](=O)[O-])c1Sc1nccc(=O)[nH]1 | > 977 | > 200 | 
